# Values of other authors in article PMC5281649 (European Journal of Nuclear Medicine and Molecular Imaging, 2016).
# Experiments:
# [1] = set-up: method as in doi:10.1016/S0924-977X(99)80017-0; conditions: doses providing full blockade of the enzyme; cited from earlier work
# [2] = in vivo; cited from earlier work
# [3] = cited from earlier work
SMILES,Effect on cognition and functionality in patients with AD [1],Reason development not continued [2],Effect in 2-year trial in patients with moderate AD [3],Long-term effect on cognition in patients with moderate-to-severe AD [3]
NCCNC(=O)c1ccc(Cl)cn1 [lazabemide],significant improvement in cognition and functionality,hepatotoxic liability,–,–
C#CCN(C)[C@H](C)Cc1ccccc1 [selegiline],–,–,may delay functional deterioration and disease progression,no long-term benefit on cognition
